Blank lines part the entries; values can stand above or below the compound they belong to. Calls of active or inactive are those of the source.
How the values were obtained:
[1] = molecular target: DNA repair and recombination protein RAD54-like (Homo sapiens, UniProt Q92698); assay: inhibitors of human RAD54 branch migration, confirmation, biochemical, fluorescence, cherry-picked samples, dose series (AID 651657); assay type: functional
[2] = molecular target: T1, Heat shock factor protein 1 (Mus musculus, UniProt P38532); assay: HSF1 potentiators in luciferase reporter cells, confirmation, cell-based, NIH3T3, luminescence, dose retest (AID 435004); assay type: functional;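 also: stress induced by proteasome inhibitor MG132 added 30 min after compound; luciferase reporter driven by HSF1 response element in NIH3T3 cells; actives raise luminescence as potentiators of the MG132 stress response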
T1 sequence (P38532 whole entry): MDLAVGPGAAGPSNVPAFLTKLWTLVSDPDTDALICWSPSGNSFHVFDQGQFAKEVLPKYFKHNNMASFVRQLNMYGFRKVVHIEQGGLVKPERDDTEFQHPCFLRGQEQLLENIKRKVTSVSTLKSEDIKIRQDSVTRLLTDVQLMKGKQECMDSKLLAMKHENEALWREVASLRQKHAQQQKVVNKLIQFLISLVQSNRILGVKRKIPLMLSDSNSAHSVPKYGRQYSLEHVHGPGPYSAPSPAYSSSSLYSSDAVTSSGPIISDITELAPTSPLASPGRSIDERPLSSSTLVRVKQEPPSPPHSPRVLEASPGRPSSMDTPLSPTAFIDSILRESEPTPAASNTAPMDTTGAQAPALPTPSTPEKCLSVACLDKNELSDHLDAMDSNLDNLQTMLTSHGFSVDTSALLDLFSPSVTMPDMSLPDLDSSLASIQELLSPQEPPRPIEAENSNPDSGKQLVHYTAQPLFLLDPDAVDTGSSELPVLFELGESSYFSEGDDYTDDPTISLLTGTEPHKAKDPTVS

[3] = molecular target: Tyrosine-protein phosphatase non-receptor type 5 (Homo sapiens, UniProt P54829); assay: STEP phosphatase inhibitors, confirmation, biochemical, fluorescence intensity, uHTS hits (AID 602372); assay type: functional; conditions: read-out: IC50_Mean
[4] = molecular target: T2, Hexokinase-1 (Homo sapiens, UniProt P19367); assay: hexokinase 1 activators, dose response, selectivity assay for HKDC1 activator project, biochemical (AID 504762); assay type: functional
T2 sequence (P19367 whole entry): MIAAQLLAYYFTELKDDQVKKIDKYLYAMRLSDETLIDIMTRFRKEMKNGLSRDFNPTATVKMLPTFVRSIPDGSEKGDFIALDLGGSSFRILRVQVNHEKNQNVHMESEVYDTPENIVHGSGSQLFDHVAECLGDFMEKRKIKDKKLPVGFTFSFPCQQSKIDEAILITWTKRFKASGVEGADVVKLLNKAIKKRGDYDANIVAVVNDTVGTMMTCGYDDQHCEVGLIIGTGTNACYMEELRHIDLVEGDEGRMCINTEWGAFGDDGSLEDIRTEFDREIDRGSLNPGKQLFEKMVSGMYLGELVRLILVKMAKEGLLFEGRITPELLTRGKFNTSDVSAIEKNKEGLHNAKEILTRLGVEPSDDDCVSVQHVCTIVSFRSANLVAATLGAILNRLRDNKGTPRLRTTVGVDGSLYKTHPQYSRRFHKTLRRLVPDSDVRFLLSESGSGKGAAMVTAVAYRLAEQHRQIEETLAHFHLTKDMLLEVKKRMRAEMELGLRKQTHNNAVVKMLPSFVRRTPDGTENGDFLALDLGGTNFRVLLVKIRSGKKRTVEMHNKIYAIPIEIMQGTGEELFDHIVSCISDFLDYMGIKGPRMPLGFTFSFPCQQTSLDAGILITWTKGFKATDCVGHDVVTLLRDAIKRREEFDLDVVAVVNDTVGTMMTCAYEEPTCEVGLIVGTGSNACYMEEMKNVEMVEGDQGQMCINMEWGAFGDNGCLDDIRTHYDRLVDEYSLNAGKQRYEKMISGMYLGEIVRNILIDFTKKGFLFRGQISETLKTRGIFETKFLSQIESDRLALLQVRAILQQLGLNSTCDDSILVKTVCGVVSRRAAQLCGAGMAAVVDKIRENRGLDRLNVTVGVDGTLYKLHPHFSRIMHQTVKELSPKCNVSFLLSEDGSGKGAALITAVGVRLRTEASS

[5] = molecular target: T3, Hexokinase HKDC1 (Homo sapiens, UniProt Q2TB90); assay: HKDC1 hexokinase activators, dose response, biochemical, W721R variant (AID 504730); assay type: functional
T3 sequence (Q2TB90 whole entry): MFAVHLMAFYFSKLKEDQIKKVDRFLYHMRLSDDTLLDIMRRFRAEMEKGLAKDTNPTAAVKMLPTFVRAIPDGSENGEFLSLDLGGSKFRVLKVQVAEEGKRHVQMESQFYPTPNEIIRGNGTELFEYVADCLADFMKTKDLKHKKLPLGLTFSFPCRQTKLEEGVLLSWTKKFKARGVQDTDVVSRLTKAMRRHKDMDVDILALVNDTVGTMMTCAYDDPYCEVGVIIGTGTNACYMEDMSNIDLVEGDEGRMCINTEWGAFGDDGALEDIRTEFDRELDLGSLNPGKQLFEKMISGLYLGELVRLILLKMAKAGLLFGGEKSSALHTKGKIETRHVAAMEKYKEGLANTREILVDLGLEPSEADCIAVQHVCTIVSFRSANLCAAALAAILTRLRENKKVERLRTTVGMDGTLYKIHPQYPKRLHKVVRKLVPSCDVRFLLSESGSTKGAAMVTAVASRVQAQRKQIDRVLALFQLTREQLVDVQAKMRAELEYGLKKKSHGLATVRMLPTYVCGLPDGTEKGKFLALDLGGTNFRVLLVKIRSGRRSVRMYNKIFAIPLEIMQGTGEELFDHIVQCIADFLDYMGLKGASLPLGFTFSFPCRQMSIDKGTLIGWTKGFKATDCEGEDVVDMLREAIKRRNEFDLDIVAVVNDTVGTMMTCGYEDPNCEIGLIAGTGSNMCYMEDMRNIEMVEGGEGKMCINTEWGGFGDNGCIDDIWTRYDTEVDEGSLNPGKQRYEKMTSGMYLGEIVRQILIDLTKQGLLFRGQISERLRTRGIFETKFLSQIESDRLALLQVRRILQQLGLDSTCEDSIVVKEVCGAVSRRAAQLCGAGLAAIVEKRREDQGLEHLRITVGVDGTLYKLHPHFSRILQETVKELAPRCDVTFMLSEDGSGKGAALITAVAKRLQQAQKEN

[6] = molecular target: Tyrosine-protein phosphatase non-receptor type 11 (Homo sapiens, UniProt Q06124); assay: SHP2 phosphatase inhibition, dose response, selectivity assay for STEP inhibitor project, biochemical (AID 602367); assay type: functional; conditions: read-out: IC50_Mean
[7] = molecular target: Dual specificity protein phosphatase 3 (Homo sapiens, UniProt P51452); assay: VHR phosphatase inhibition, dose response, selectivity assay for STEP inhibitor project, biochemical (AID 602374); assay type: functional; conditions: read-out: IC50_Mean
[8] = molecular target: Steroidogenic factor 1 (Homo sapiens, UniProt Q13285); assay: Counterscreen for inverse agonists of the liver receptor homolog-1 (LRH-1; NR5A2): Luminescence-based cell-based high throughput dose response assay to identify inverse agonists of the Steroidogenic Factor 1 Nuclear Receptor (SF1; NR5A1).; assay type: functional
[9] = StAR promoter reporter inhibition counter-screen, dose response, counter-screen for LRH-1 inverse agonist project, cell-based, luminescence, luciferase reporter (AID 651969); assay type: functional
[10] = molecular target: Nuclear receptor subfamily 5 group A member 2 (Homo sapiens, UniProt O00482); assay type: functional, cell-based;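 also: HEK293T cells transfected with LRH-1 and a StAR promoter luciferase reporter; potency for inhibitors that lower LRH-1 driven reporter light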
[11] = miR-122 activators in hepatoma reporter cells, dose response, cell-based, Huh7 psiCHECK-miR122, Renilla luciferase, cherry-picked (AID 651956); assay type: functional;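 also: huh7 hepatoma cells stably carrying a psiCHECK-2 miR-122 sensor plasmid; renilla luciferase signal reporting endogenous miR-122 activity after 48 h compound exposure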
[12] = HEK293T cell cytotoxicity, dose response, cytotoxicity control for HIV Vif inhibitor project, cherry-picks (AID 652208); assay type: functional, cell-based
[13] = LMP1-driven NF-kB reporter inhibition, dose response, cell-based, luciferase reporter, luminescence, dry powder, set 2 (AID 624376); assay type: functional
[14] = NIH:OVCAR-3 ovarian cancer cell cytotoxicity, dose response, PAX8 inhibitor project, plate reader, dry powder samples (AID 743044); assay type: functional, cell-based
[15] = molecular target: Paired box protein Pax-8 (Homo sapiens, UniProt Q06710); assay: inhibitors of PAX8-driven TPO luciferase reporter, dose response, RMG-I cells, cherry-pick (AID 687027); assay type: functional, cell-based;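 also: luciferase reporter driven by Pax8 target thyroperoxidase promoter measured by SteadyGlo luminescence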
[16] = non-specific cell cytotoxicity, dose response, cytotoxicity control for PAX8 inhibitor project, plate reader, dry powder samples (AID 743021); assay type: functional, cell-based
[17] = A2780 ovarian cancer cell cytotoxicity, dose response, cytotoxicity control, plate reader, dry powder samples (AID 743046); assay type: functional, cell-based
[18] = molecular target: Albumin (Bos taurus, UniProt P02769); assay: Counterscreen for inhibitors of T-cell receptor (TCR)-CD3 interaction: Fluorescence-based biochemical high throughput dose response assay to identify inhibitors of T-cell receptor (TCR)-CD3 interaction using a TAMRA-labeled BSA probe.; assay type: functional
[19] = molecular target: T4, DNA repair protein RAD52 homolog (Homo sapiens, UniProt P43351); assay type: functional, biochemical
T4 sequence (P43351 whole entry): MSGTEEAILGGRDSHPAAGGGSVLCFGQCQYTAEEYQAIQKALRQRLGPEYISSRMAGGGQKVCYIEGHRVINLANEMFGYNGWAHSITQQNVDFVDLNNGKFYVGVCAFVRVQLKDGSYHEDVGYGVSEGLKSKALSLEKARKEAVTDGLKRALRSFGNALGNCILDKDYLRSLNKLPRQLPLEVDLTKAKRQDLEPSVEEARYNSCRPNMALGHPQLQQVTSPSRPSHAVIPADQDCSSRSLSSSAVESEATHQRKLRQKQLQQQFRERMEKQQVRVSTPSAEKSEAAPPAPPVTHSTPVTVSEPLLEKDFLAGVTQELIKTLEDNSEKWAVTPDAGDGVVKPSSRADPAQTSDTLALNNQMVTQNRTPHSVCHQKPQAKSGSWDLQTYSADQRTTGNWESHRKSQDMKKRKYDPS

Chain of DNA repair and recombination protein RAD54-like (Q92698 whole entry): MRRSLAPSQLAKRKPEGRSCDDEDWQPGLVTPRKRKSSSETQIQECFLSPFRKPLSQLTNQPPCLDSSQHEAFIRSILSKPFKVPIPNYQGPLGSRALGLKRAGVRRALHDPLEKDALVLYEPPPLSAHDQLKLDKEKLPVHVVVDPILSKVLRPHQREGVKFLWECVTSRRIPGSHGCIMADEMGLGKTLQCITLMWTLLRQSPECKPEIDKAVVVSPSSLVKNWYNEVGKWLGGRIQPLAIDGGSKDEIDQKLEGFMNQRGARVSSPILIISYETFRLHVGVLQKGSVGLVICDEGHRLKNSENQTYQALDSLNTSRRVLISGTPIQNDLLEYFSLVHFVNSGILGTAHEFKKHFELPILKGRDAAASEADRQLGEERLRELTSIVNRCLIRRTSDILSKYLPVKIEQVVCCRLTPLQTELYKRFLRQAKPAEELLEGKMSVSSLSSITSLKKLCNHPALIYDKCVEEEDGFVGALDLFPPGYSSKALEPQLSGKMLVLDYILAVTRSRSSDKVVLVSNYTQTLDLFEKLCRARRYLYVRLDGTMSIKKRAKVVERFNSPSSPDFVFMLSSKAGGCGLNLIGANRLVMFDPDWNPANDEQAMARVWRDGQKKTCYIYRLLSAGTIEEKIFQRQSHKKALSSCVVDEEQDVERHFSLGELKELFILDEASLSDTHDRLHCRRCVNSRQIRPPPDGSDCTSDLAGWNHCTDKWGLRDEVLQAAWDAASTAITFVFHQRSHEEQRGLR
Chain of Dual specificity protein phosphatase 3 (P51452 whole entry): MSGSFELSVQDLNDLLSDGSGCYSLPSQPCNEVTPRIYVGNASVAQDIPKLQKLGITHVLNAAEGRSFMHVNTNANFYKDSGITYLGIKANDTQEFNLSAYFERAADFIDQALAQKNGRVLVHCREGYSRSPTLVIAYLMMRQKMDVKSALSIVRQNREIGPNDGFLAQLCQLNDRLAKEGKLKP
Chain of Steroidogenic factor 1 (Q13285 whole entry): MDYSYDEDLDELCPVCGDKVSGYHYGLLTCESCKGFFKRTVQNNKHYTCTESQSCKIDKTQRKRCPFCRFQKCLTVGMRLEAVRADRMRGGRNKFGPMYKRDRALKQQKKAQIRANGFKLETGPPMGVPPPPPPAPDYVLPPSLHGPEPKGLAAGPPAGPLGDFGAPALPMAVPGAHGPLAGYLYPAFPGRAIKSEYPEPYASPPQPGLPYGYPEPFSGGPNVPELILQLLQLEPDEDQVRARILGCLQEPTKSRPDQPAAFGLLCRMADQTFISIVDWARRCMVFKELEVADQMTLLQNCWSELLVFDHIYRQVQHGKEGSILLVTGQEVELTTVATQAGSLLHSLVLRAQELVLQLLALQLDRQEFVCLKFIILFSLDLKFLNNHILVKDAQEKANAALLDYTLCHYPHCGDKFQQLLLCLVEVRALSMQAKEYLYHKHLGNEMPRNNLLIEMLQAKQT
Chain of Nuclear receptor subfamily 5 group A member 2 (O00482 whole entry): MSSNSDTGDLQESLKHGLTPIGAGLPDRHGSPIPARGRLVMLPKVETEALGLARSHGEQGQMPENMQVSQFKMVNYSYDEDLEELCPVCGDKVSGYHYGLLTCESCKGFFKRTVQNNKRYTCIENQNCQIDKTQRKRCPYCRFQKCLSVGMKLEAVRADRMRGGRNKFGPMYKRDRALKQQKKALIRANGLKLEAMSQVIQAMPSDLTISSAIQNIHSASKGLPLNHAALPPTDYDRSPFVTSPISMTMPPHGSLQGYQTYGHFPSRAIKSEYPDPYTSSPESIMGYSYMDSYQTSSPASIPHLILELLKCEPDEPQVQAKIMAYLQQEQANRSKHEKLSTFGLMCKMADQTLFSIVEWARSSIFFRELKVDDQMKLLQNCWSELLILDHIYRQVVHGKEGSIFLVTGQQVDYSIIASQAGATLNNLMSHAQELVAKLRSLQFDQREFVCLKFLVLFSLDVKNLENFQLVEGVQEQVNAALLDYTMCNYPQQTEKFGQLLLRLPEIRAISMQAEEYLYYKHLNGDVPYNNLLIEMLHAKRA
Chain of Albumin (P02769 whole entry): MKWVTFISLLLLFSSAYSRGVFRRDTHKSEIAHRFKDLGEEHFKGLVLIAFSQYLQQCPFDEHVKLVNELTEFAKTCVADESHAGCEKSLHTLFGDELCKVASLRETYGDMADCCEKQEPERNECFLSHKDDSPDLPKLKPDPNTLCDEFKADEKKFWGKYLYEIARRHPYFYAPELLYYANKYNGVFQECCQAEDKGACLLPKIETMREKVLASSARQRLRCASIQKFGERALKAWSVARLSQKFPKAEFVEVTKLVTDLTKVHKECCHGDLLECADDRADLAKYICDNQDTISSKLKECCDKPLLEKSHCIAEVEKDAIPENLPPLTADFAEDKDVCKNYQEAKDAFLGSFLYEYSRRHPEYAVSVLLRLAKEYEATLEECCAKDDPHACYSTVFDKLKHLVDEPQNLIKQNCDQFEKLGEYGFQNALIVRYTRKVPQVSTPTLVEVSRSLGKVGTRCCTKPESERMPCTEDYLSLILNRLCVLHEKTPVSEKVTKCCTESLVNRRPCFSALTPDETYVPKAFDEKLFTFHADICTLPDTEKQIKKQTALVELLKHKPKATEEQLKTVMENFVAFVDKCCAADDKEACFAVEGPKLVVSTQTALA
Chain of Paired box protein Pax-8 (Q06710 whole entry): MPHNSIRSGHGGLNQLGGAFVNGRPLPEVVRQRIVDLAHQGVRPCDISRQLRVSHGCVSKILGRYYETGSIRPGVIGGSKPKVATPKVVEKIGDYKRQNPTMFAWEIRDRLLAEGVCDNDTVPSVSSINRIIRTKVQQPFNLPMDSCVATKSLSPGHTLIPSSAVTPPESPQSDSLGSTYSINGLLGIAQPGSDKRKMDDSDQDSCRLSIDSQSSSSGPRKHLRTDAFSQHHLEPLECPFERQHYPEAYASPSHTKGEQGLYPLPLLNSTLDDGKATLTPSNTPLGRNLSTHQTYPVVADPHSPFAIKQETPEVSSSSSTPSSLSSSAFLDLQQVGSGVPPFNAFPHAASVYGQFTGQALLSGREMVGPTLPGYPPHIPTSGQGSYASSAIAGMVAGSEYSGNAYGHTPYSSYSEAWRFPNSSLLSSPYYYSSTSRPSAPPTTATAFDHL
Chain of Tyrosine-protein phosphatase non-receptor type 5 (P54829 whole entry): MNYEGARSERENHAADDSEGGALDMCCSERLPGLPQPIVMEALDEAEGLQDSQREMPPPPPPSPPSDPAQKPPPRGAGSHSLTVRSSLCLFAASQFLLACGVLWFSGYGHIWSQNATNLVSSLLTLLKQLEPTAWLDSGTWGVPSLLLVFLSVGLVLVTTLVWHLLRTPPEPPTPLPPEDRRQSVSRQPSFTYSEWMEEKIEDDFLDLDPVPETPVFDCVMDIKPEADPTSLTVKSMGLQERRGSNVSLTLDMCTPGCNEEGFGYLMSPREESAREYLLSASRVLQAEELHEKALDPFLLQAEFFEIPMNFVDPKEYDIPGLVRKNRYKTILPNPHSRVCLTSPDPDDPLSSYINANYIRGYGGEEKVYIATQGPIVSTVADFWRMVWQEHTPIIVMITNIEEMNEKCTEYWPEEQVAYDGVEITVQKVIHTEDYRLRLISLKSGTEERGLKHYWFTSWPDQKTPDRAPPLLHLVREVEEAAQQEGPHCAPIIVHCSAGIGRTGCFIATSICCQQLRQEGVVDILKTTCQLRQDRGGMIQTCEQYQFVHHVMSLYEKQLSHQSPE

AC50 [1]: 32.1 µM (active)
EC50 [2]: 55.8 µM (active)
Structure (SMILES): CCOC(=O)c1c(NC(C)=O)sc2c(O)c(CN3CCN(CC)CC3)ccc12

IC50 [3]: > 80 µM (inactive)
EC50 [4]: > 80 µM (inactive)
EC50 [5]: > 80 µM (inactive)
IC50 [6]: 6.06 µM (active)
IC50 [7]: 7.77 µM (active)
Structure (SMILES): CC(=NNC(=S)N1CC2CCC(CC2)C1)c1cccc(C)n1

Structure (SMILES): COc1ccc(Nc2nc(NCCN3CCOCC3)nc(Nc3ccc(OC)cc3)n2)cc1
IC50 [8]: 4.32 µM (active)
IC50 [9]: 12 µM (inactive)
IC50 [10]: 5.3 µM (active)

Structure (SMILES): C[C@@H]1CN([C@@H](C)CO)S(=O)(=O)c2ccc(-c3ccccc3)cc2O[C@@H]1CN(C)C(=O)c1ccc2c(c1)OCO2
AC50 [11]: 16.3 µM (active)

Structure (SMILES): COc1ccc(-c2coc3c(C(=O)Nc4cccc(C(C)=O)c4)cccc23)c(C)c1
AC50 [12]: > 52 µM (inactive)

Structure (SMILES): COc1cccc(S(=O)(=O)N(C)C[C@H]2Oc3cc(C4=CCCCC4)ccc3S(=O)(=O)N([C@@H](C)CO)C[C@@H]2C)c1
AbsAC35 [13]: 64.1 µM

Structure (SMILES): C[C@H](CO)N1C[C@H](C)[C@H](CN(C)C(=O)[C@H](Cc2ccccc2)N(C)C)OCc2ccccc2-c2c(n(C)c3ccccc23)C1=O
AC50 [14]: 45.4 µM (active)
AC50 [15]: 16.4 µM (active)
AC50 [16]: 36.2 µM (active)
AC50 [17]: 12.6 µM (active)

IC50 [18]: > 94.1 µM (inactive)
Structure (SMILES): CNC(=S)N/N=C/c1cc(Br)cc(Br)c1O

AC50 [1]: 11.7 µM (active)
AC50 [19]: 11.2 µM (active)
Structure (SMILES): CCOC(=O)c1cnc2ccc(OCC)cc2c1NCCCN1CCOCC1

Reference: ChEMBL document CHEMBL1201862, “PubChem BioAssay data set” (2004)
